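Compound exposure: 48 hours, 5 concentrations, 96-well plates. Abbreviation: GI50, concentration required for 50% inhibition of growth.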 Active and inactive are the calls of the source. Rule as the data show it: active = GI50 up to about 1.1 µM and inactive = higher.

Among the test systems are RPMI-8226; MDA-N; OVCAR-5; HCT-15; CCRF-CEM; MOLT-4; OVCAR-3; T47D; SF-268; UO-31; KM12; SF-539; MDA-MB-435; NCI-H522; MDA-MB-231; SK-MEL-28; HCC 2998; SN12C; HT-29; SNB-19.
What all share (assay): inhibition of tumour cell growth, NCI panel, 48 h

`CNC(=S)c1nnsc1N`: the GI50 in the test on RPMI-8226 was 0.9 µM (active); in the test on MDA-N it was > 100 µM (inactive); in the test with OVCAR-5 it was > 100 µM (inactive); in the test on HCT-15 it was more than 100 µM; with CCRF-CEM, > 100 µM (inactive); with MOLT-4, > 100 µM (inactive). Moreover, the GI50 in the test with OVCAR-3 is 0.479 µM (active); in the test on T47D, 2.03 µM (inactive); in the test with SF-268 it was > 100 µM (inactive); in the test with UO-31, > 100 µM (inactive); with KM12 it was 11.6 µM (inactive); in the test with SF-539, > 100 µM (inactive). For the same compound, the GI50 was > 100 µM (inactive) in the test with MDA-MB-435; 9.14 µM (inactive) in the test with NCI-H522; > 100 µM (inactive) in the test with MDA-MB-231; > 100 µM (inactive) with SK-MEL-28; 29.5 µM (inactive) in the test with HCC 2998; > 100 µM (inactive) in the test on SN12C.
`c1ccc(C2=NOC(c3ccccc3)N2C23CC4CC(CC(C4)C2)C3)cc1` (configuration not stated): the GI50 was > 10 µM (inactive) in the test on RPMI-8226; > 10 µM (inactive) in the test with MDA-N; > 10 µM (inactive) with OVCAR-5; more than 10 µM with HCT-15; > 10 µM (inactive) with CCRF-CEM; 9.53 µM (inactive) in the test with MOLT-4. Also, the GI50 in the test on HT-29, with OVCAR-3, in the test on T47D, in the test with SF-268, with KM12 and with SF-539 was > 10 µM (inactive) in each case. Besides, the GI50 in the test on MDA-MB-435, in the test with NCI-H522, with SNB-19, in the test on MDA-MB-231, in the test with SK-MEL-28 and with HCC 2998 was > 10 µM (inactive) each time. Also, the GI50 in the test on SN12C was > 10 µM (inactive).
As for `Nc1nc(Cl)cc(NCC2CC(O)(CO)C2)n1` (configuration not stated), the GI50 is > 100 µM (inactive) in the test with RPMI-8226; > 100 µM (inactive) in the test with MDA-N; > 100 µM (inactive) in the test on OVCAR-5; more than 100 µM in the test on HCT-15; > 100 µM (inactive) in the test on CCRF-CEM; > 100 µM (inactive) with MOLT-4. The GI50 with HT-29, with OVCAR-3, with T47D, with SF-268, in the test on UO-31 and in the test with KM12 was > 100 µM (inactive) each time. For the same compound, the GI50 in the test on SF-539, with MDA-MB-435, with NCI-H522, in the test on MDA-MB-231, with SK-MEL-28 and in the test on HCC 2998 was > 100 µM (inactive) throughout. Also, the GI50 in the test with SN12C is > 100 µM (inactive).
`CC(=O)N(CCc1ccccc1)C(C#N)c1ccccc1` (configuration not stated): the GI50 in the test with RPMI-8226 is > 100 µM (inactive); in the test on MDA-N, > 100 µM (inactive); with OVCAR-5 it was > 100 µM (inactive); in the test on HCT-15, more than 100 µM; in the test on CCRF-CEM, > 100 µM (inactive); with MOLT-4, > 100 µM (inactive). Moreover, the GI50 with HT-29 was > 100 µM (inactive); in the test on OVCAR-3, 70.1 µM (inactive); in the test with T47D it was > 100 µM (inactive); in the test with SF-268, > 100 µM (inactive); in the test with UO-31, > 100 µM (inactive); in the test on KM12, > 100 µM (inactive). The GI50 in the test on SF-539, with MDA-MB-435, in the test on NCI-H522, in the test on SNB-19, in the test on MDA-MB-231 and with HCC 2998 was > 100 µM (inactive) in each case. The GI50 in the test with SN12C is > 100 µM (inactive).
For the compound `Cc1cc(N(CCC#N)CCC#N)ccc1C(/N=N/c1ccc([N+](=O)[O-])cc1)=N\NC(=O)c1ccccc1`, the GI50 is 75.9 µM (inactive) in the test with RPMI-8226; 6.25 µM (inactive) with MDA-N; > 100 µM (inactive) in the test with OVCAR-5; 30.1 µM with HCT-15; 41.4 µM (inactive) with CCRF-CEM; 45.2 µM (inactive) in the test with MOLT-4. The GI50 in the test on HT-29 was 24.5 µM (inactive); with OVCAR-3 it was 46.1 µM (inactive); with T47D, 27 µM (inactive); with SF-268, 32.3 µM (inactive); in the test with UO-31, 34.4 µM (inactive); with KM12 it was 40.8 µM (inactive). In addition, the GI50 in the test on SF-539 is 15 µM (inactive); in the test with MDA-MB-435 it was 7.82 µM (inactive); in the test on NCI-H522, 17 µM (inactive); in the test on SNB-19 it was 40.6 µM (inactive); in the test with MDA-MB-231, 58.7 µM (inactive); in the test on HCC 2998, 40.5 µM (inactive). In addition, the GI50 in the test on SN12C was 43.3 µM (inactive).
As to `CCOC(=O)C(Cc1ccc2c(c1)CCC2)(Cc1ccc2c(c1)CCC2)C(=O)OCC`, the GI50 is 55.7 µM (inactive) with RPMI-8226; 46 µM (inactive) in the test on MDA-N; > 100 µM (inactive) with OVCAR-5; 61.7 µM in the test with HCT-15; 32.2 µM (inactive) with CCRF-CEM; 23.6 µM (inactive) in the test on MOLT-4. Further, the GI50 is 30.5 µM (inactive) with HT-29; 26.1 µM (inactive) in the test with OVCAR-3; 34.2 µM (inactive) with T47D; 56.9 µM (inactive) with SF-268; 71.9 µM (inactive) in the test with UO-31; 81.7 µM (inactive) with SF-539. Moreover, the GI50 was 44.6 µM (inactive) in the test with MDA-MB-435; 29.9 µM (inactive) in the test on NCI-H522; > 100 µM (inactive) in the test on SNB-19; 47.1 µM (inactive) with MDA-MB-231; 51.5 µM (inactive) in the test with SK-MEL-28; 49 µM (inactive) in the test with HCC 2998.
Regarding `Cc1nn(C(=O)c2ccc(Cl)cc2)c2c1C(c1ccc(Cl)cc1)SC(=N)N2` (configuration not stated), the GI50 with RPMI-8226 was > 10 µM (inactive); in the test with MDA-N it was > 10 µM (inactive); with OVCAR-5, > 10 µM (inactive); with HCT-15, more than 10 µM; with CCRF-CEM, > 10 µM (inactive); in the test on MOLT-4, > 10 µM (inactive). For the same compound, the GI50 in the test with HT-29, in the test with OVCAR-3, with T47D, in the test on SF-268, in the test on KM12 and in the test on SF-539 was > 10 µM (inactive) in each case. Also, the GI50 with MDA-MB-435, in the test on NCI-H522, with SNB-19, in the test on MDA-MB-231, in the test on SK-MEL-28 and in the test on HCC 2998 was > 10 µM (inactive) each time. In addition, the GI50 with SN12C was > 10 µM (inactive).
Take `Cc1nc(C)c(N2CCNCC2)c(O)n1`: the GI50 in the test on RPMI-8226 is > 100 µM (inactive); in the test with MDA-N, > 100 µM (inactive); in the test on HCT-15, more than 100 µM; in the test with CCRF-CEM it was > 100 µM (inactive); with MOLT-4 it was > 100 µM (inactive); in the test with HT-29, > 100 µM (inactive). In addition, the GI50 with OVCAR-3, in the test on T47D, in the test with SF-268, with UO-31, with KM12 and in the test on SF-539 was > 100 µM (inactive) throughout. The GI50 in the test on MDA-MB-435, with NCI-H522, in the test with SNB-19, in the test on MDA-MB-231, with SK-MEL-28 and with HCC 2998 was > 100 µM (inactive) each time. Also, in the test on SN12C, the GI50 was > 100 µM (inactive).
Turning to `Cc1nc(Cl)c(Cl)c(Cl)n1`, the GI50 with RPMI-8226 was < 0.0398 µM (active); in the test on MDA-N it was 1.6 µM (inactive); in the test on OVCAR-5, 1.32 µM (inactive); in the test with HCT-15, 0.558 µM; in the test on CCRF-CEM it was 0.0109 µM (active); in the test with MOLT-4, < 0.0142 µM (active). In addition, the GI50 is 0.104 µM (active) in the test on HT-29; 0.146 µM (active) in the test with OVCAR-3; 0.596 µM (active) in the test with T47D; 1.92 µM (inactive) with SF-268; 0.405 µM (active) in the test on KM12; 1.44 µM (inactive) with SF-539. Moreover, the GI50 with MDA-MB-435 is 0.531 µM (active); in the test with NCI-H522, 1.79 µM (inactive); in the test with SNB-19 it was 1.39 µM (inactive); with MDA-MB-231 it was 0.276 µM (active); in the test on SK-MEL-28, 0.311 µM (active); with HCC 2998, 1.42 µM (inactive). The GI50 with SN12C was 0.284 µM (active).
In the case of `CC1=C(C(=O)NNC(=O)C[N+](C)(C)C)CC(C(=O)NNC(=O)C[N+](C)(C)C)=C(C)N1`, the GI50 in the test on RPMI-8226 was > 100 µM (inactive); in the test on MDA-N, > 100 µM (inactive); in the test with OVCAR-5 it was > 100 µM (inactive); with HCT-15, more than 100 µM; with CCRF-CEM it was 21.8 µM (inactive); with MOLT-4 it was > 100 µM (inactive). Also, the GI50 in the test with HT-29 was > 100 µM (inactive); in the test with OVCAR-3 it was > 100 µM (inactive); in the test on T47D, 63.2 µM (inactive); in the test with SF-268 it was > 100 µM (inactive); with UO-31 it was 68.4 µM (inactive); in the test on KM12 it was > 100 µM (inactive). Besides, the GI50 in the test with SF-539, with MDA-MB-435, in the test with NCI-H522, in the test with SNB-19, in the test with MDA-MB-231 and with HCC 2998 was > 100 µM (inactive) throughout. Moreover, in the test with SN12C, the GI50 was > 100 µM (inactive).
Turning to `CC(=O)c1cc2c(s1)C(=O)c1scc(C(C)=O)c1C2=O`, the GI50 in the test on RPMI-8226 was 0.209 µM (active); in the test with MDA-N it was 0.198 µM (active); in the test on OVCAR-5, 1.57 µM (inactive); with HCT-15, 0.308 µM; in the test on CCRF-CEM, 0.235 µM (active); in the test with HT-29, 1.81 µM (inactive). The GI50 with OVCAR-3 was 0.0738 µM (active); in the test with T47D, 0.254 µM (active); with SF-268, 0.319 µM (active); in the test on UO-31 it was 0.455 µM (active); with KM12, 1.39 µM (inactive); with SF-539 it was 1.21 µM (inactive). Further, the GI50 in the test with MDA-MB-435 was 0.224 µM (active); with NCI-H522, 0.378 µM (active); in the test on SNB-19, 1.15 µM (inactive); in the test on MDA-MB-231, 0.225 µM (active); with SK-MEL-28 it was 0.673 µM (active); in the test on HCC 2998, 1.98 µM (inactive). The GI50 with SN12C is 0.273 µM (active).

Values taken from ChEMBL document CHEMBL1201862, “PubChem BioAssay data set” (2004).
